The results in this text go back to US20210345613A1, “HERBICIDAL PYRIMIDINE COMPOUNDS” (BASF SE, priority 2016, published 2021).

What all share (assay type): in vivo
The subject of assay [1] is Amaranthus retroflexus. The assay can be described thus: greenhouse herbicidal test, post-emergence treatment. The note with it: post-emergence method, application rate 2000 g/ha, scale from 0 to 100, test period 2 to 4 weeks. The text has this:
(§1) The seeds of the test plants were sown separately for each species. For the post-emergence treatment, the test plants were first grown to a height of 3 to 15 cm, depending on the plant habit, and only then treated with the active ingredients which had been suspended or emulsified in water. For this purpose, the test plants were either sown directly and grown in the same containers, or they were first grown separately as seedlings and transplanted into the test containers a few days prior to treatment. Depending on the species, the plants were kept at 10-25° C. or 20-35° C., respectively. The test period extended over 2 to 4 weeks. During this time, the plants were tended, and their response to the individual treatments was evaluated. Evaluation was carried out using a scale from 0 to 100. 100 means no emergence of the plants, or complete destruction of at least the aerial moieties, and 0 means no damage, or normal course of growth. A good herbicidal activity is given at values of at least 70 and a very good herbicidal activity is given at values of at least 85. The plants used in the greenhouse experiments were of the following species: [table]

Assay [2] has as its system Alopecurus myosuroides. The assay is described as above. The settings on record: post-emergence method, application rate 2000 g/ha, scale from 0 to 100, test period 2 to 4 weeks.
From the text: as §1

The subject of assay [3] is Avena fatua. Described as above. The note with it: post-emergence method, application rate 2000 g/ha, scale from 0 to 100, test period 2 to 4 weeks.
From the text: as §1

The subject of assay [4] is Echinocloa crus-galli. The assay can be described thus: greenhouse herbicidal test, pre-emergence treatment. The note with it: pre-emergence method, application rate 2000 g/ha, scale from 0 to 100, test period 2 to 4 weeks. The source says: (§2) The seeds of the test plants were sown separately for each species. For the pre-emergence treatment, the active ingredients, which had been suspended or emulsified in water, were applied directly after sowing by means of finely distributing nozzles. The containers were irrigated gently to promote germination and growth and subsequently covered with transparent plastic hoods until the plants had rooted. This cover caused uniform germination of the test plants, unless this had been impaired by the active ingredients. Depending on the species, the plants were kept at 10-25° C. or 20-35° C., respectively. The test period extended over 2 to 4 weeks. During this time, the plants were tended, and their response to the individual treatments was evaluated. Evaluation was carried out using a scale from 0 to 100. 100 means no emergence of the plants, or complete destruction of at least the aerial moieties, and 0 means no damage, or normal course of growth. A good herbicidal activity is given at values of at least 70 and a very good herbicidal activity is given at values of at least 85. The plants used in the greenhouse experiments were of the following species: [table]

Assay [5] has as its system Apera spica-venti. Described as above. The settings on record: pre-emergence method, application rate 2000 g/ha, scale from 0 to 100, test period 2 to 4 weeks.
From the text: as §2

For assay [6], the system named is Setaria viridis. The assay can be described thus: greenhouse herbicidal test, post-emergence treatment. The note with it: post-emergence method, application rate 2000 g/ha, scale from 0 to 100, test period 2 to 4 weeks.
From the text: as §1

Assay [7] concerns ABUTH. Described as above. The settings on record: post-emergence method, application rate 2000 g/ha, scale from 0 to 100, test period 2 to 4 weeks.
From the text: as §1, with “85.” for “85. The plants used in the greenhouse experiments were of the following species: [table]”

Assay [8] relates to Echinocloa crus-galli. The description is as above. The note with it: post-emergence method, application rate 2000 g/ha, scale from 0 to 100, test period 2 to 4 weeks.
From the text: as §1

The subject of assay [9] is Matricaria inodora. Described as above. The note with it: post-emergence method, application rate 2000 g/ha, scale from 0 to 100, test period 2 to 4 weeks.
From the text: as §1

`Cc1occc1-c1nc(C2CC2)ncc1-c1ncccc1Cl` [Ex.34]: the “herbicidal activity against AMARE” value in assay [1] is recorded as “very good (a very good herbicidal activity is given at values of at least 85)”. The “herbicidal activity against ALOMY” value in [2] is “very good (a very good herbicidal activity is given at values of at least 85)”. Besides, the “herbicidal activity against AVEFA” value in [3] is given as “good (A good herbicidal activity is given at values of at least 70)”. Moreover, in [4], the “herbicidal activity against ECHCG” value is reported as “very good (a very good herbicidal activity is given at values of at least 85)”. For the same compound, in assay [5], the “herbicidal activity against APESV” value is listed as “very good (a very good herbicidal activity is given at values of at least 85)”.
Regarding `Clc1cccnc1-c1cnc(C2CC2)nc1C=Cc1cccs1` [Ex.35], the “herbicidal activity against SETVI” value in [6] is reported as “very good (a very good herbicidal activity is given at values of at least 85)”. In [2], the “herbicidal activity against ALOMY” value is given as “very good (a very good herbicidal activity is given at values of at least 85)”. The “herbicidal activity against AVEFA” value in assay [3] was “good (A good herbicidal activity is given at values of at least 70)”. In addition, the “herbicidal activity against ECHCG” value in assay [4] is reported as “very good (a very good herbicidal activity is given at values of at least 85)”. Moreover, in [5], the “herbicidal activity against APESV” value was “very good (a very good herbicidal activity is given at values of at least 85)”.
As for `CCOC(=O)C(C)(C)c1nc(C2CC2)ncc1-c1ncccc1Cl` [Ex.22], the “herbicidal activity against AMARE” value in [1] is recorded as “very good (a very good herbicidal activity is given at values of at least 85)”.
On to `CC(O)Cc1nc(C2CC2)ncc1-c1ncccc1Cl` (stereo not shown) [Ex.29], for which the “herbicidal activity against SETVI” value in [6] is recorded as “very good (a very good herbicidal activity is given at values of at least 85)”. Also, in assay [4], the “herbicidal activity against ECHCG” value was “very good (a very good herbicidal activity is given at values of at least 85)”. The “herbicidal activity against APESV” value in [5] is on record as “very good (a very good herbicidal activity is given at values of at least 85)”. Further, the “herbicidal activity against ABUTH” value in assay [7] is “good (A good herbicidal activity is given at values of at least 70)”.
As for `CCC(=O)Cc1nc(C2CC2)ncc1-c1ncccc1Cl` [Ex.44], the “herbicidal activity against AMARE” value in assay [1] is listed as “good (A good herbicidal activity is given at values of at least 70)”. Also, in assay [2], the “herbicidal activity against ALOMY” value is listed as “very good (a very good herbicidal activity is given at values of at least 85)”. In assay [4], the “herbicidal activity against ECHCG” value was “very good (a very good herbicidal activity is given at values of at least 85)”. Further, the “herbicidal activity against APESV” value in assay [5] is “very good (a very good herbicidal activity is given at values of at least 85)”.
Turning to `CCOC(=O)C(C)c1nc(C2CC2)ncc1-c1ncccc1Cl` (stereo not shown) [Ex.21], in assay [8], the “herbicidal activity against ECHCG” value is recorded as “very good (a very good herbicidal activity is given at values of at least 85)”. Further, the “herbicidal activity against AMARE” value in [1] is given as “good (A good herbicidal activity is given at values of at least 70)”. Besides, the “herbicidal activity against APESV” value in assay [5] is given as “good (A good herbicidal activity is given at values of at least 70)”.
On to `Clc1cccnc1-c1cnc(C2CC2)nc1C=Cc1ccccc1` [Ex.37], for which the “herbicidal activity against SETVI” value in assay [6] was “very good (a very good herbicidal activity is given at values of at least 85)”. Also, in assay [1], the “herbicidal activity against AMARE” value was “very good (a very good herbicidal activity is given at values of at least 85)”. In assay [7], the “herbicidal activity against ABUTH” value is “very good (a very good herbicidal activity is given at values of at least 85)”.
On to `OC(Cc1nc(C2CC2)ncc1-c1ncccc1Cl)c1cccs1` (stereo not shown) [Ex.33], for which the “herbicidal activity against ECHCG” value in [8] was “good (A good herbicidal activity is given at values of at least 70)”. Moreover, the “herbicidal activity against AMARE” value in assay [1] is on record as “very good (a very good herbicidal activity is given at values of at least 85)”.
Turning to `Cc1nc(C2CC2)ncc1-c1ncccc1Cl` [Ex.01], the “herbicidal activity against AMARE” value in assay [1] is reported as “very good (a very good herbicidal activity is given at values of at least 85)”. In addition, the “herbicidal activity against MATIN” value in assay [9] was “very good (a very good herbicidal activity is given at values of at least 85)”.
For `OC(Cc1nc(C2CC2)ncc1-c1ncccc1Cl)c1ccco1` (stereo not shown) [Ex.24], in assay [6], the “herbicidal activity against SETVI” value is on record as “good (A good herbicidal activity is given at values of at least 70)”. Also, the “herbicidal activity against ALOMY” value in [2] is recorded as “very good (a very good herbicidal activity is given at values of at least 85)”. In assay [3], the “herbicidal activity against AVEFA” value is given as “good (A good herbicidal activity is given at values of at least 70)”. For the same compound, the “herbicidal activity against ECHCG” value in [4] is on record as “very good (a very good herbicidal activity is given at values of at least 85)”. Besides, the “herbicidal activity against APESV” value in [5] was “very good (a very good herbicidal activity is given at values of at least 85)”.
